Results from patent US11629171B2, “Beta-hairpin peptidomimetics” (POLYPHOR AG, priority 2017, dated 2023).
≈ marks a conversion by molar mass, not a printed value. Where a SMILES comes first, the peptide text is derived from it. Bridges are numbered along the chain shown (N, C = ends). Roman numbers before positions name the chains, in order. [ ]: non-standard residue; d: D form. Tle = CC(C)(C)[C@H](N)C(=O)O; dDab = NCC[C@@H](N)C(=O)O; Dab = NCC[C@H](N)C(=O)O; Abu = CC[C@H](N)C(=O)O; Dap = NC[C@H](N)C(=O)O

Legend:
Type in all cases: cell-based
[1] = test system: Acinetobacter baumannii 872842; details: 872842
Method in brief: (§1)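 CLSI broth microdilution: inoculum ~10^6 CFU/mL in cation-adjusted Mueller-Hinton II broth, with peptide in serial two-fold dilutions plus Polysorbate 80 (0.002% final). MIC (μg/mL) is the lowest concentration without visible growth after 18-20 hours at 35° C.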

[2] = test system: Acinetobacter baumannii DSM 30008; details: DSM 30008
Method in brief: as §1

[3] = test system: Enterobacter cloacae 848840; details: 848840
Method in brief: as §1

[4] = test system: Escherichia coli 926415; details: 926415
Method in brief: as §1

[5] = test system: Escherichia coli ATCC 25922; details: ATCC 25922
Method in brief: as §1

[6] = test system: Klebsiella pneumoniae 968733; details: 968733
Method in brief: as §1

[7] = test system: Klebsiella pneumoniae SSI #3010; details: SSI #3010
Method in brief: as §1

[8] = test system: Pseudomonas aeruginosa ATCC 27853; details: ATCC 27853
Method in brief: as §1

[9] = test system: human red blood cells (hRBC); test: Hemolysis; details: red cells of human, 1 h, 200
Method in brief: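 Read-out is supernatant absorbance at 540 nm, normalised to full lysis by 2% Triton X-100 and zero lysis by PBS with 10% water. Peptides (200 μg/mL) were exposed to 20% v/v washed human erythrocytes at 37° C for 1 h under shaking.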

SMILES: CC(=O)N[C@H](C(=O)N[C@H]1CSSC[C@@H](C(=O)N[C@@H](CO)C(=O)N[C@H](CC(=O)O)C(N)=O)NC(=O)[C@H](C(C)C)NC(=O)[C@H](CO)NC(=O)[C@H](Cc2c[nH]c3ccccc23)NC(=O)[C@H](CO)NC(=O)[C@@H](CCN)NC(=O)[C@H](CCC(=O)N[C@@H](CCN)C(=O)N[C@H](C(=O)N[C@@H](CN)C(=O)N[C@H]2CCNC(=O)[C@H]([C@@H](C)O)NC(=O)[C@H](CCN)NC(=O)[C@H](CCN)NC(=O)[C@H](CC(C)C)NC(=O)[C@@H](CC(C)C)NC(=O)[C@H](CCN)NC2=O)[C@@H](C)O)NC(=O)[C@H](CCN)NC(=O)[C@H](Cc2ccc(O)cc2)NC1=O)C(C)C [Ex. 374] (I: Ac-VCY[Dab]E[dDab]SWSVCS[dD]-NH2 / II: [Dab]T[Dap][Dab][Dab][dL]L[Dab][Dab]T; disulfide I:2-I:11; amide I:5-II:N; lactam II:4-II:C)
- MIC [1]: 0.25 µg/mL (≈ 0.0994 µM)
- Acinetobacter baumannii DSM 30008 MIC [2]: 0.0625 µg/mL
- MIC [3]: 0.25 µg/mL (≈ 0.0994 µM)
- MIC [4]: 0.5 µg/mL (≈ 0.199 µM)
- Escherichia coli ATCC 25922 MIC [5]: 0.0625 µg/mL
- MIC [6]: 1 µg/mL (≈ 0.398 µM)
- Klebsiella pneumoniae SSI #3010 MIC [7]: 0.0625 µg/mL
- Pseudomonas aeruginosa ATCC 27853 MIC [8]: 0.125 µg/mL
- Hemolysis at 200 μg/mL [9]: <1%

SMILES: CC[C@@H]1NC(=O)[C@@H](CC(C)C)NC(=O)[C@H](CCN)NC(=O)[C@@H](NC(=O)[C@H](CN)NC(=O)[C@@H](NC(=O)[C@H](CCN)NC(=O)CC[C@@H]2NC(=O)[C@H](CO)NC(=O)[C@H](Cc3ccc(O)cc3)NC(=O)[C@@H](NC(=O)[C@@H](NC(C)=O)C(C)C)CSSC[C@@H](C(=O)N[C@H](C(N)=O)[C@@H](C)O)NC(=O)[C@H](C(C)(C)C)NC(=O)[C@H](CO)NC(=O)[C@H](Cc3c[nH]c4ccccc34)NC(=O)[C@H](CCN)NC(=O)[C@@H](CCN)NC2=O)[C@@H](C)O)CCNC(=O)[C@H]([C@@H](C)O)NC(=O)[C@H](CCN)NC(=O)[C@H](CCN)NC1=O [Ex. 256] (I: Ac-VCYSE[dDab][Dab]WS[Tle]CT-NH2 / II: [Dab]T[Dap][Dab][Dab][dL][Abu][Dab][Dab]T; disulfide I:2-I:11; amide I:5-II:N; lactam II:4-II:C)
- MIC [1]: 0.03125 µg/mL (≈ 0.013 µM)
- MIC [2]: 0.03125 µg/mL (≈ 0.013 µM)
- MIC [3]: 0.0625 µg/mL (≈ 0.0261 µM)
- MIC [4]: 0.0625 µg/mL (≈ 0.0261 µM)
- MIC [5]: 0.03125 µg/mL (≈ 0.013 µM)
- MIC [6]: 0.0625 µg/mL (≈ 0.0261 µM)
- MIC [7]: 0.03125 µg/mL (≈ 0.013 µM)
- MIC [8]: 0.0625 µg/mL (≈ 0.0261 µM)
- Hemolysis at 200 μg/mL [9]: 1%

SMILES: CC(=O)N[C@H](C(=O)N[C@H]1CSSC[C@@H](C(=O)N[C@@H](CO)C(N)=O)NC(=O)[C@H](C(C)C)NC(=O)[C@H](CO)NC(=O)[C@H](Cc2c[nH]c3ccccc23)NC(=O)[C@H]([C@@H](C)O)NC(=O)[C@@H](CCN)NC(=O)[C@H](CCC(=O)N[C@@H](CCN)C(=O)N[C@H](C(=O)N[C@@H](CCN)C(=O)N[C@H]2CCNC(=O)[C@H]([C@@H](C)O)NC(=O)[C@H](CCN)NC(=O)[C@H](CCN)NC(=O)[C@H](CC(C)C)NC(=O)[C@@H](CC(C)C)NC(=O)[C@H](CCN)NC2=O)[C@@H](C)O)NC(=O)[C@H](CCN)NC(=O)[C@H](Cc2ccc(O)cc2)NC1=O)C(C)C [Ex. 45] (I: Ac-VCY[Dab]E[dDab]TWSVCS-NH2 / II: [Dab]T[Dab][Dab][Dab][dL]L[Dab][Dab]T; disulfide I:2-I:11; amide I:5-II:N; lactam II:4-II:C)
- MIC [1]: 0.25 µg/mL (≈ 0.103 µM)
- MIC [2]: 0.0625 µg/mL (≈ 0.0258 µM)
- MIC [3]: 0.25 µg/mL (≈ 0.103 µM)
- MIC [4]: 0.5 µg/mL (≈ 0.206 µM)
- MIC [5]: 0.0625 µg/mL (≈ 0.0258 µM)
- MIC [6]: 0.5 µg/mL (≈ 0.206 µM)
- MIC [7]: 0.125 µg/mL (≈ 0.0515 µM)
- MIC [8]: 0.125 µg/mL (≈ 0.0515 µM)
- Hemolysis at 200 μg/mL [9]: <1%
